The values that follow come from publication PMC7463632, “Conformational Restriction of Histamine with a Rigid Bicyclo[3.1.0]hexane Scaffold Provided Selective H3 Receptor Ligands” (Molecules, 2020).

Several values for one entry are separate records, joined by “and”; a condition that tells them apart may be missing. Equal entries are not always repeated. Where two headings read alike, the source gives them in different places.

The target in experiment [1] is T1, human histamine H3 receptor (Homo sapiens, UniProt Q9Y5N1).
T1 construct: purchased Euroscreen (Brussels, Belgium); host or cells: CHO cells (membrane preparations)
The experiment is described as follows: Radioligand binding assay with [3H]Nα-methylhistamine on CHO cell membranes expressing recombinant human H3 receptor. To be noted: for Ki: human H3R, CHO cell membranes, [3H]Nα-methylhistamine, mean ± SEM (n = 3–5); for Selectivity Ratio (H4/H3): ratio of Ki H4 / Ki H3, human receptors. How it is done:
(§1) The binding affinities of 6, 7, ent-6, and ent-7 for the human H3R subtype with [^3H]N^α-methylhistamine and the human H4R subtype with [^3H]histamine were evaluated using cell membranes expressing human H3R or H4R according to the previously reported method, and the results are summarized in Table 1.
(§2) The protocol of the biological assay was according to the previous report. The membrane preparations of Chinese hamster ovary (CHO) cells, which expressed recombinant human histamine H3 or H4 receptors, were purchased from Euroscreen (Brussels, Belgium). The binding assay of the H3 and H4 receptors was performed using [^3H]N^α-methylhistamine (Perkin-Elmer, Boston, MA) and [^3H]histamine (Perkin-Elmer), respectively. Briefly, the membrane preparations (7.5–15 µg protein) were incubated with different concentrations of [^3H]N^α-methylhistamine (0.1–3 nM) and of [^3H]histamine(1–30 nM) for 30 min at 25 °C in 50 mM Tris/5 mM MgCl2 buffer (pH 7.4). The reaction was terminated by rapid filtration (Cell Harvester, Brandel Co., Gaithersburg, MD) through Whatman GF/B glass fiber filters presoaked for 2 h in 0.5% polyethyleneimine, and the filters were rinsed three times with an ice-cold buffer (2 mL). Membrane-bound radioactivity was extracted from filters overnight in scintillation fluid (toluene, 2 L; Triton X-100, 1 L; 2,5-diphenyloxazole, 15 g; 1,4-bis[2-(5-phenyloxazolyl)]benzene, 0.3 g) and determined in a liquid scintillation counter. […] The apparent dissociation constants (Kd) for each radioligand was determined by nonlinear regression analysis of the curve generated by plotting specific binding concentration versus concentration of the radioligand with GraphPad Prism (GraphPad Software, San Diego, CA) using a one-site binding curve equation. […] The inhibition constant, Ki, was calculated from the equation, Ki = IC50/(1 + L/Kd), where L equals the concentration of each radioligand. The data were presented as mean ± SE (n = 3–5).

Experiment [2] has as its target T2, human histamine H4 receptor (Homo sapiens, UniProt Q9H3N8).
T2 construct: purchased Euroscreen (Brussels, Belgium); host or cells: CHO cells (membrane preparations)
The experiment can be described thus: Radioligand binding assay with [3H]histamine on CHO cell membranes expressing recombinant human H4 receptor. To be noted: human H4R, mean ± SEM (n = 3–5). How it is done: as §1, §2

Experiment [3] has as its target T1, human histamine H3 receptor. To be noted: cited from earlier work; for Ki: human H3R, [3H]Nα-methylhistamine, mean ± SEM; for Selectivity Ratio (H4/H3): ratio of Ki H4 / Ki H3, human receptors.
For experiment [4], the target named is T2, human histamine H4 receptor. Further details: method as in PMID 16942032. To be noted: human H4R, [3H]histamine; mean ± SEM; cited from earlier work.

T1 sequence (Q9Y5N1 whole entry): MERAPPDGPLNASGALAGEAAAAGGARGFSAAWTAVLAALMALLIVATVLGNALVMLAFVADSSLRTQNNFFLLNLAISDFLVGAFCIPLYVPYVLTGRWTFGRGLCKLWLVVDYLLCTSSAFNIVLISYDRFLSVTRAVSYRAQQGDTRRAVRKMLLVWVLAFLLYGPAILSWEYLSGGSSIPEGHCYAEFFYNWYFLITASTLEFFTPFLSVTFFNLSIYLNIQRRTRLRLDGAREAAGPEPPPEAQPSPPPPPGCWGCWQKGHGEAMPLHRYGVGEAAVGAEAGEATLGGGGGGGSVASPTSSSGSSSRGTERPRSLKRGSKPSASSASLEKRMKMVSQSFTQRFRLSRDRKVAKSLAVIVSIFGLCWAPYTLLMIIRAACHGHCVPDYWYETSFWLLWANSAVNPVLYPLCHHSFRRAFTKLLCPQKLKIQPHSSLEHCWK
T2 sequence (Q9H3N8 whole entry): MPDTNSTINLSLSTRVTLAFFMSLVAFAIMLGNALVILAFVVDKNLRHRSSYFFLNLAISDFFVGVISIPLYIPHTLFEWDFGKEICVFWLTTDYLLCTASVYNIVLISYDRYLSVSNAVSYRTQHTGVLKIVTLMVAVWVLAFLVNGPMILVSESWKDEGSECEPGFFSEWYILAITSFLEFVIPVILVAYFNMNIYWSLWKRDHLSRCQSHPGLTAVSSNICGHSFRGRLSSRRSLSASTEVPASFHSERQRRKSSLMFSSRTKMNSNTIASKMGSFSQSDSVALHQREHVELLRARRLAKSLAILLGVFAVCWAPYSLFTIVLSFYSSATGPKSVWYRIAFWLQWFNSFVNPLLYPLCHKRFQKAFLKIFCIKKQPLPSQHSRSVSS

As for `Clc1ccc(CNC[C@H]2CC[C@@]3(c4c[nH]cn4)C[C@@H]23)cc1` (single isomer, unassigned) [ent-7], in experiment [1], the Ki amounted to 14.8 ± 3.8 nM and the “Selectivity Ratio (H4/H3)” value was determined as 4.7. For the same compound, the Ki in experiment [2] came out at 69.2 ± 21 nM.

Turning to `Clc1ccc(CNC[C@@H]2CC[C@@]3(c4c[nH]cn4)C[C@@H]23)cc1` (single isomer, unassigned) [ent-6], the Ki in experiment [1] turned out to be 21.9 ± 6 nM; in experiment [2] it was 416 ± 155 nM. Also, in experiment [1], the “Selectivity Ratio (H4/H3)” value was determined as 19.

Turning to `Clc1ccc(CNCCC2CC2c2c[nH]cn2)cc1` (stereo not shown) [Compound 3], in experiment [3], the Ki is 3.6 ± 0.4 nM; the “Selectivity Ratio (H4/H3)” value was 10.3 and 10. Besides, the Ki in experiment [4] is 37.2 ± 2.7 nM.

Consider `Cl.Cl.Clc1ccc(CNC[C@H]2CC[C@]3(c4c[nH]cn4)C[C@H]23)cc1` [Compound 6, (1S,4S,5R)-4-[N-(4-Chlorobenzyl)aminomethyl]-1-(1H-imidazol-4-yl)bicyclo[3.1.0]hexane dihydrochloride], for which the values for the inhibitory constant (Ki) in experiment [1] and in experiment [2] were 31.6 ± 8.2 nM and 501 ± 201 nM, respectively. Further, the “Selectivity Ratio (H4/H3)” value in experiment [1] stood at 16.

Take `CC[C@H](CNCc1ccc(Cl)cc1)[C@H]1C[C@@H]1c1c[nH]cn1` [Compound 5]: the “fold lower H3R binding affinity than that of 3” value in experiment [1] (H3R Ki of 5 compared with 3) was “more than 15 fold”. In addition, in experiment [1], the “Selectivity Ratio (H4/H3)” value worked out at 1.2. Moreover, the Ki in experiment [2] turned out to be 76.5 ± 14 nM.

As for `Clc1ccc(CNCC[C@@H]2C[C@@H]2c2cnc[nH]2)cc1` (single isomer, unassigned) [ent-3], the inhibitory constant (Ki) is 8.4 ± 1.5 nM in experiment [3] and 7.6 ± 0.4 nM in experiment [4]. The “Selectivity Ratio (H4/H3)” value in experiment [3] is 0.9.

As for `CC[C@@H](CNCc1ccc(Cl)cc1)[C@H]1C[C@@H]1c1c[nH]cn1` [Compound 4], in experiment [1], the “Selectivity Ratio (H4/H3)” value was determined as 1.3. The inhibition constant (Ki) in experiment [2] stood at 9 ± 1 nM.

Regarding `Clc1ccc(CNC[C@@H]2CC[C@]3(c4c[nH]cn4)C[C@H]23)cc1` [Compound 7], the inhibition constant (Ki) in experiment [1] turned out to be 5.6 ± 1.6 nM; in experiment [2], 602 ± 343 nM.

By Ki is commonly meant a dissociation constant, usually derived from enzyme kinetics or from competition with a known ligand.
